Ten compounds from patent publication US9351973B2, “Pyrazolopyridyl compounds as aldosterone synthase inhibitors” (Merck Sharp & Dohme Corp., priority 2011, dated 2016) can be followed below.

The target of one test is human CYP11B2 (Homo sapiens (Human), UniProt P19099). The test is described as follows: V79-Human-CYP11B2 cell assay (aldosterone formation from 11-deoxycorticosterone, HTRF). In kind it is cell-based. Conditions: for IC50: V79 cells stably expressing human CYP11B2, 125 nM 11-deoxycorticosterone, 3 hours. As for the experimental part:
(§1) Methods for V79-Human-CYP11B2 and V79-Human-CYP11B1 Assays: V79 cell lines stably expressing the either the human CYP11B2 or the human CYP11B1 enzyme were generated using a standard transfection protocol. V79 cells were transfected with plasmids pTriEx3-Hygro-hCyp11B2 or pTriEx3-Hygro-hCyp11B1 using Lipofectamine2000 reagent. V79 cells that stably express the human CYP11B2 or human CYP11B1 enzyme were selected for and maintained in DMEM supplemented with 10% FBS and 400 μg/mL hygromycin for ˜2 weeks. Single cell clones were generated by infinite dilution in DMEM supplemented with 10% FBS and 400 μg/mL hygromycin until single colonies were obtained. Clones V79-hCYP11B2-CLE9 and V79-hCYP11B1-8CLC7, were determined to produce the most aldosterone and cortisol, respectively, and were selected for inhibitor screening. For testing of inhibitors, cells were harvested at 80% confluency with 0.5% Trypsan-EDTA, washed once in PBS, and reconstituted in DMEM+0.1% BSA media at a cell concentration of 600,000 cells/mL for the CYP11B2 assay and 280,000 cells/mL for the CYP11B1 assay. 25 μL of cells were added to a 384 well tissue culture treated plate and mixed with 0.3 μL of inhibitor or DMSO (1% final DMSO concentration) for 1 hour at 37° C., 5% CO2. After pre-incubation with inhibitor, the reaction was initiated by adding 5 μL of substrate (final concentration of 125 nM 11-deoxycorticosterone for the CYP11B2 assay or 250 nM 11-deoxycortisol for the CYP11B1 assay). The reaction was carried out for 3 hours at 37° C., 5% CO2 and was stopped by harvesting the supernatants. The amount of product in the supernatant (aldosterone for CYP11B2 assay and cortisol for the CYP11B1 assay) was measured using HTRF-based assay kit (Aldosterone HTRF-CisBio#64ALDPEB, Cortisol HTRF-CisBio #63IDC002-CORT). IC50s for the inhibitor were determined by plotting the amount of product formed against the concentration of inhibitor using sigmoidal dose-response curve (variable slope) fit in GraphPad.
On the technique in general: In TR-FRET formats the signal depends on donor and acceptor labels being close together.

The target of another test is human CYP11B1 (Homo sapiens (Human), UniProt P15538). The test is described as follows: V79-Human-CYP11B1 cell assay (cortisol formation from 11-deoxycortisol, HTRF). In kind it is cell-based. The conditions noted are these: for IC50: V79 cells stably expressing human CYP11B1, 250 nM 11-deoxycortisol, 3 hours. How it is done:
as §1

SMILES strings stand for the structures.

Chain of human CYP11B1 (P15538 25-503): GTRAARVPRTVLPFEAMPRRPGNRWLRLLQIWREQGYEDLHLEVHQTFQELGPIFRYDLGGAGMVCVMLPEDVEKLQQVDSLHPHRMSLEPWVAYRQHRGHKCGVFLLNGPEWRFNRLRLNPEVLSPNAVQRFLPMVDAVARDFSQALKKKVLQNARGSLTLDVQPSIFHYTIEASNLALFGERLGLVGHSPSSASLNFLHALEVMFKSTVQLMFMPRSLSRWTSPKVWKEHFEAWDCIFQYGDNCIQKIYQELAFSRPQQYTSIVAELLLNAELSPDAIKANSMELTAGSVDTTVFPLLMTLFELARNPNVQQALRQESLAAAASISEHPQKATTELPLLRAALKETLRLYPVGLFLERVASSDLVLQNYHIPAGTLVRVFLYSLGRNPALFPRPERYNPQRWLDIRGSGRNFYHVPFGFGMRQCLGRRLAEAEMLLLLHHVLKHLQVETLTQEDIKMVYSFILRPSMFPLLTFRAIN
Chain of human CYP11B2 (P19099 25-503): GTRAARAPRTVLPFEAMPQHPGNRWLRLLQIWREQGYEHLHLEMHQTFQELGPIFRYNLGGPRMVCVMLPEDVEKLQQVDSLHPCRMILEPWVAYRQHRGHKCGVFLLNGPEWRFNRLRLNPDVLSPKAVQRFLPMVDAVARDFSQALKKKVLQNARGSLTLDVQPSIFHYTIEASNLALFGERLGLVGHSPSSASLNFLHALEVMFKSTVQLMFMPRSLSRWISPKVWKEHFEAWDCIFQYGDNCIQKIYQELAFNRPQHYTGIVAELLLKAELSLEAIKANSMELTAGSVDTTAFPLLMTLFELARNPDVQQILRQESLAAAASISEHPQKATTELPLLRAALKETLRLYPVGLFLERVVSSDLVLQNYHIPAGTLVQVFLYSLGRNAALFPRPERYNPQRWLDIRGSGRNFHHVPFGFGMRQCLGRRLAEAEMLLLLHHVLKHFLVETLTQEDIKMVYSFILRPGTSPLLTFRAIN

Regarding `Cc1cncc(-c2nn3c(c2C)NC(=O)CC3)c1` [Example 7, 3-methyl-2-(5-methylpyridin-3-yl)-6,7-dihydropyrazolo[1,5-a]pyrimidin-5(4H)-one], the IC50 (in general, the midpoint of a concentration-inhibition curve) stood at 2.2 nM at human CYP11B2 and 282 nM on human CYP11B1.

Consider `Cc1cncc(-c2nn3c(c2C)N(C)C(=O)CC3)c1` [Example 8, 3,4-dimethyl-2-(5-methylpyridin-3-yl)-6,7-dihydropyrazolo[1,5-a]pyrimidin-5(4H)-one], for which the IC50 against human CYP11B2 worked out at 9.8 nM; against human CYP11B1 it was 3720 nM.

`CCc1c(-c2cncc(C)c2)nn2c1N(C)C(=O)CC2` [Example 9, 3-ethyl-4-methyl-2-(5-methylpyridin-3-yl)-6,7-dihydropyrazolo[1,5-a]pyrimidin-5(4H)-one]: the IC50 at human CYP11B2 turned out to be 7.8 nM; at human CYP11B1, 2340 nM.

With `Cc1cncc(-c2nn3c(c2C2CC2)NC(=O)CC3)c1` [Example 10, 3-cyclopropyl-2-(5-methylpyridin-3-yl)-6,7-dihydropyrazolo[1,5-a]pyrimidin-5(4H)-one], at human CYP11B2, the IC50 stood at 13.2 nM. Also, at 10 µM the inhibition at human CYP11B1 was 71%.

In the case of `Cc1c(-c2cncc(F)c2)nn2c1N(C)C(=O)CC2` [Example 12, 2-(5-fluoropyridin-3-yl)-3,4-dimethyl-6,7-dihydropyrazolo[1,5-a]pyrimidin-5(4H)-one], the IC50 stood at 19.1 nM against human CYP11B2 and 1820 nM on human CYP11B1.

As to `CCc1c(-c2cncc(F)c2)nn2c1NC(=O)CC2` [Example 13, 3-ethyl-2-(5-fluoropyridin-3-yl)-6,7-dihydropyrazolo[1,5-a]pyrimidin-5(4H)-one], the IC50 at human CYP11B2 is 11.7 nM; against human CYP11B1, 1350 nM.

For `Cc1c(-c2cncc(F)c2)nn2c1NC(=O)CC2` [Example 15, 2-(5-fluoropyridin-3-yl)-3-methyl-6,7-dihydropyrazolo [1,5-a]pyrimidin-5(4H)-one], the values for the IC50 on human CYP11B2 and at human CYP11B1 were 30.9 nM and 3630 nM, respectively.

In turn, `O=C1CCn2nc(-c3cncc(F)c3)c(C3CC3)c2N1` [Example 19, 3-cyclopropyl-2-(5-fluoropyridin-3-yl)-6,7-dihydropyrazolo[1,5-a]pyrimidin-5(4H)-one] had an IC50 against human CYP11B2 of 102 nM. For the same compound, testing at 10 µM against human CYP11B1 gave an inhibition of 38%.

As for `Cc1cncc(-c2nn3c(c2C#N)NC(=O)CC3)c1` [Example 25, 2-(5-methylpyridin-3-yl)-5-oxo-4,5,6,7-tetrahydropyrazolo[1,5-a]pyrimidine-3-carbonitrile], the inhibition – broadly, the drop in the measured response relative to a control, in per cent – at 1 µM at human CYP11B2 is 61%.

With `N#Cc1c(-c2cncc(Cl)c2)nn2c1NC(=O)CC2` [Example 26, 2-(5-chloropyridin-3-yl)-5-oxo-4,5,6,7-tetrahydropyrazolo[1,5-a]pyrimidine-3-carbonitrile], the inhibition at 1 µM at human CYP11B2 was determined as 51%. Further, at human CYP11B1, the IC50 was 1070 nM.
